Values quoted from earlier work, collected in PMC7434893 (British Journal of Cancer, 2020).

biological target: tankyrase 1/2; details: relative to E7449; cited from earlier work

Q: Which “IC50 values for tankyrase inhibition, fold higher than E7449” value does the source give for `O=C(c1cc(Cc2n[nH]c(=O)c3ccccc23)ccc1F)N1CCN(C(=O)C2CC2)CC1` [olaparib] here?
A: 5–20 fold

Q: For `NC(=O)c1cccc2cn(-c3ccc([C@@H]4CCCNC4)cc3)nc12` [niraparib], which “IC50 values for tankyrase inhibition, fold higher than E7449” value is on record?
A: 5–20 fold

Q: With `C[C@]1(c2nc3c(C(N)=O)cccc3[nH]2)CCCN1` [veliparib] as the molecule, how does the “IC50 values for tankyrase inhibition, fold higher than E7449” value read?
A: 5–20 fold
